From patent publication US20120270884A1, “Methods of Treating Aneurysmal Dilatation, Blood Vessel Wall Weakness and Specifically Abdominal Aortic and Thoracic Aneurysm Using Matrix Metalloprotease-2 Inhibitors” (SYMPHONY EVOLUTION, INC., priority 2009, published 2012)

What was measured:
Type in all cases: biochemical
[1] = molecular target: T1, MMP-1 (Fibroblast collagenase) (Homo sapiens, UniProt P03956); assay: In vitro metalloprotease inhibition, MMP-1
T1 sequence (P03956 100-469): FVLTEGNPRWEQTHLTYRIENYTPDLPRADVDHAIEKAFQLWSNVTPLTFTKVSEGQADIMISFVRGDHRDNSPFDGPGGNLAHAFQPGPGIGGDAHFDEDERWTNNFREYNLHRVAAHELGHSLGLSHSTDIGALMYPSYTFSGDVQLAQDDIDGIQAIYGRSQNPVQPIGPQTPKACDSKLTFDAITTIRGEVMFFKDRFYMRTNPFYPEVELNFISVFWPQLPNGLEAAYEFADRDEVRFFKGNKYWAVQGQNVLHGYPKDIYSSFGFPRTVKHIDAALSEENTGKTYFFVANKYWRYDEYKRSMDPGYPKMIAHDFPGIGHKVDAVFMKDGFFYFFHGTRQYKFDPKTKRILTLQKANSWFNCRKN
From the text: (§1) Blank cells indicate lack of data only.

[2] = molecular target: T2, MMP-2 (72 kDa gelatinase, gelatinase A) (Homo sapiens, UniProt P08253); assay: In vitro metalloprotease inhibition, MMP-2
T2 sequence (P08253 110-660): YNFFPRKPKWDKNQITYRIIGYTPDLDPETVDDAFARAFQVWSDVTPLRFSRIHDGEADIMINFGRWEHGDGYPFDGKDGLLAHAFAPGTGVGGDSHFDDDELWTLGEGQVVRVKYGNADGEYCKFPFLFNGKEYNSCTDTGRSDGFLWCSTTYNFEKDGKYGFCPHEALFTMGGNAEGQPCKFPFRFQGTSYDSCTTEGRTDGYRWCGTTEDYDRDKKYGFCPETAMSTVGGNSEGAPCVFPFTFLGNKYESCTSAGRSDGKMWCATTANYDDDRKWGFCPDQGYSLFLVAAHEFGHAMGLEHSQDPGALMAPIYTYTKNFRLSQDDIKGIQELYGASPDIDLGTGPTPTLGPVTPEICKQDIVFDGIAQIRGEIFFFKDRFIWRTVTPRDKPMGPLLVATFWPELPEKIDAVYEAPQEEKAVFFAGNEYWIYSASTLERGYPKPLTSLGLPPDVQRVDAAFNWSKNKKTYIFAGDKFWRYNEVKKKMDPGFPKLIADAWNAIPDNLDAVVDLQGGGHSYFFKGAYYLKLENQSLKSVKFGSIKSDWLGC

[3] = molecular target: MMP-3 (Stromelysin-1) (Homo sapiens, UniProt P08254); assay: In vitro metalloprotease inhibition, MMP-3
From the text: as §1

[4] = molecular target: MMP-13 (collagenase-3) (Homo sapiens, UniProt P45452); assay: In vitro metalloprotease inhibition, MMP-13

MMP-3 (Stromelysin-1), sequence (P08254 100-477, species assumed): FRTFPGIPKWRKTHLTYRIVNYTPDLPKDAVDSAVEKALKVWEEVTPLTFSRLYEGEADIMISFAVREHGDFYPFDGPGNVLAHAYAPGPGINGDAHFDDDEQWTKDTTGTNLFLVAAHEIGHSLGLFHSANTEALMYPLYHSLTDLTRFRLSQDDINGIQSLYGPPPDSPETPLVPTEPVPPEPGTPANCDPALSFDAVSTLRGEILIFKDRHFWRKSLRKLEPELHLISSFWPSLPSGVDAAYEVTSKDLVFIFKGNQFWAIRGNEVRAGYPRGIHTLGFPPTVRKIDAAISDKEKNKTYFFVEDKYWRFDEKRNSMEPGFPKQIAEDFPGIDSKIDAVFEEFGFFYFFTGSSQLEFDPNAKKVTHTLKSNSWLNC

Row | Structure (SMILES) | IC50 [1] [nM] | IC50 [2] [nM] | IC50 [3] [nM] | IC50 [4] [nM]
1 | O=C(CCl)NC(=O)N1CCN(S(=O)(=O)c2cc(F)c(Oc3ccc(Cl)cc3)c(F)c2)[C@@H](C(=O)NO)C1 [Entry 33] | 1000 to 20000 | < 50 | 50 to 1000 | < 50
2 | CCOC(=O)N1CCN(S(=O)(=O)c2cc(F)c(Oc3ccc(F)cc3)c(F)c2)[C@@H](C(=O)NO)C1 [Entry 13] | 1000 to 20000 | < 50 | 50 to 1000 | < 50
3 | O=C(NO)[C@H]1CN(S(=O)(=O)Cc2cc(Cl)cc(Cl)c2)CCN1S(=O)(=O)c1cc(F)c(Oc2ccc(Cl)cc2)c(F)c1 [Entry 61] | > 20000 | 1000 to 20000 | > 20000 | 1000 to 20000
4 | O=C(NO)[C@H]1CN(S(=O)(=O)c2cccc3cnccc23)CCN1S(=O)(=O)c1cc(F)c(Oc2ccc(Cl)cc2)c(F)c1 [Entry 48] | > 20000 | < 50 | 50 to 1000 | < 50
5 | COCCOC(=O)N1CCN(S(=O)(=O)c2cc(F)c(Oc3ccccc3)c(F)c2)[C@@H](C(=O)NO)C1 [Entry 40] | 1000 to 20000 | < 50 | 50 to 1000 | < 50
6 | CS(=O)(=O)N1CCN(S(=O)(=O)c2cc(F)c(Oc3ccc(Cl)cc3)c(F)c2)[C@@H](C(=O)NO)C1 [Entry 28] | 50 to 1000 | < 50 | 50 to 1000 | < 50
7 | O=C(NO)[C@H]1CN(C(=O)C(=O)N2CCCCC2)CCN1S(=O)(=O)c1cc(F)c(Oc2ccc(Cl)cc2)c(F)c1 [Entry 35] | 1000 to 20000 | < 50 | 50 to 1000 | < 50
8 | O=C(NO)[C@H]1CNCCN1S(=O)(=O)c1cc(F)c(Oc2ccc(F)cc2)c(F)c1 [Entry 11] | > 20000 | 50 to 1000 | 1000 to 20000 | > 20000
9 | COCCOC(=O)N1CCN(S(=O)(=O)c2ccc(Oc3ccc(F)cc3)c(F)c2)[C@@H](C(=O)NO)C1 [Entry 3] | 50 to 1000 | < 50 | 1000 to 20000 | < 50
10 | O=C(CN1CCOCC1)NC(=O)N1CCN(S(=O)(=O)c2cc(F)c(Oc3ccc(Cl)cc3)c(F)c2)[C@@H](C(=O)NO)C1 [Entry 46] | 1000 to 20000 | < 50 | 50 to 1000 | < 50
11 | O=C(NO)[C@H]1CN(C(=O)CN2CCOCC2)CCN1S(=O)(=O)c1cc(F)c(Oc2ccc(Cl)cc2)c(F)c1 [Entry 25] | > 20000 | < 50 | 50 to 1000 | < 50
12 | COCCOC(=O)N1CCN(S(=O)(=O)c2ccc(-c3cccc(F)c3)nc2)[C@@H](C(=O)NO)C1 [Entry 66] | 50 to 1000 | < 50 | < 50 | < 50
13 | O=C(NO)[C@H]1CN(S(=O)(=O)CCN2CCCCC2)CCN1S(=O)(=O)c1cc(F)c(Oc2ccc(Cl)cc2)c(F)c1 [Entry 53] | 50 to 1000 | < 50 | 50 to 1000 | < 50
14 | CC(C)(C)OC(=O)N1CCN(S(=O)(=O)c2cc(F)c(Oc3ccc(F)cc3)c(F)c2)[C@@H](C(=O)NO)C1 [Entry 9] | 1000 to 20000 | < 50 | 1000 to 20000 | 1000 to 20000
15 | N#Cc1ccc(Oc2ccc(S(=O)(=O)N3CCN(C(=O)N4CCOCC4)C[C@@H]3C(=O)NO)cc2F)cc1 [Entry 7] | 50 to 1000 | < 50 | < 50 | < 50
16 | O=C(NO)[C@H]1CN(C(=O)OCc2ccccc2)CCN1S(=O)(=O)c1cc(F)c(Oc2ccc(Cl)cc2)c(F)c1 [Entry 32] | 1000 to 20000 | < 50 | 50 to 1000 | < 50
17 | CCCCCCC(=O)N1CCN(S(=O)(=O)c2cc(F)c(Oc3ccc(Cl)cc3)c(F)c2)[C@@H](C(=O)NO)C1 [Entry 43] | > 20000 | < 50 | 50 to 1000 | < 50
18 | COCCOC(=O)N1CCN(S(=O)(=O)c2ccc(Oc3ccc(C#N)cc3)c(F)c2)[C@@H](C(=O)NO)C1 [Entry 5] | 50 to 1000 | < 50 | 50 to 1000 | < 50
19 | O=C(NO)[C@H]1CN(C(=O)N2CCOCC2)CCN1S(=O)(=O)c1cc(F)c(Oc2ccc(F)cc2)c(F)c1 [Entry 12] | 1000 to 20000 | < 50 | 50 to 1000 | < 50
